From US20090215758A1, “Use of 2,5-Disubstituted Thiazol-4-One Derivatives in Drugs” (Gruenenthal GmbH, priority 2005, published 2009) come the findings set out here.

A word on the inhibition: it is the change of the read-out against control, counted positive when it falls. One may read the EC50 as the concentration needed to bring the measured effect to its halfway point.

Structures are written as SMILES. Counter-ions that a name gives are not always drawn. Some results are limits rather than exact numbers.

The target in experiment [1] is T1, vanilloid receptor 1 (VR1/TRPV1) of the rat species (Rattus norvegicus, UniProt O35433).
T1 construct: The spinal column is removed from beheaded rats; from tissue; host or cells: primary cells from rat dorsal root ganglia (DRGs)
T1 sequence (O35433 whole entry): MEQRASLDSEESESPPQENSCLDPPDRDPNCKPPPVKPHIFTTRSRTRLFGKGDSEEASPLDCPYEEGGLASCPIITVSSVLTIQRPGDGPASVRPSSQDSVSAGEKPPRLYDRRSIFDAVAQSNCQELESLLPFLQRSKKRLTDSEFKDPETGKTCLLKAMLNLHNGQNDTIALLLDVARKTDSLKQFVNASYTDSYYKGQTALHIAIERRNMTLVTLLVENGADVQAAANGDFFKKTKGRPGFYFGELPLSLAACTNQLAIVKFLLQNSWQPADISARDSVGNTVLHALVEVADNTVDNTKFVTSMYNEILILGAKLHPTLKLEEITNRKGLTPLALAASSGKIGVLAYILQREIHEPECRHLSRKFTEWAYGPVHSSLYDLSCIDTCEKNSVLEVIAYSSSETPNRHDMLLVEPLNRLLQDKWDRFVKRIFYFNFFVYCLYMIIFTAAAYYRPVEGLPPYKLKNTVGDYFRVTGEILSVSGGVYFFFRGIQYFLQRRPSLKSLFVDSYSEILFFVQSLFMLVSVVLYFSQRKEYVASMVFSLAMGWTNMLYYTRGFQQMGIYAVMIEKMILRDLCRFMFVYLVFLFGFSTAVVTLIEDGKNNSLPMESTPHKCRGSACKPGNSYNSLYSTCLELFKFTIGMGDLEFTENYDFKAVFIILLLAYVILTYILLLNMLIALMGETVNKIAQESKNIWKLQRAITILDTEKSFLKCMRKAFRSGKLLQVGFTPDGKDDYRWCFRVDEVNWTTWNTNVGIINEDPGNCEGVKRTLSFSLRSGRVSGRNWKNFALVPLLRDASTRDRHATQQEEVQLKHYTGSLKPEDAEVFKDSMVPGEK
The experiment can be described thus: Functional study on vanilloid receptor 1, FLIPR Ca2+ assay in rat dorsal root ganglia cells. It is filed as cell-based. The following applies: for inhibition at 10 µM / activation at 10 µM / VR1 (rat) (% inhibition compared to 10 μM CP) / VR1 (rat) (% stimulation compared to 10 μM CP): test compound 10 μM; for inhibition at 10 µM / VR1 (rat) (% inhibition compared to 10 μM CP): 5 min incubation, then 100 nM capsaicin, relative to maximum inhibition with 10 μM capsaicin; for inhibition at 10 µM: read-out: VR1 (rat) (% inhibition compared to 10 μM CP); for activation at 10 µM / VR1 (rat) (% stimulation compared to 10 μM CP): Ca2+ signal relative to 10 μM capsaicin (CP); for activation at 10 µM: read-out: VR1 (rat) (% stimulation compared to 10 μM CP). On the procedure:
The agonistic or antagonistic action of the substances to be studied on the vanilloid receptor 1 (VR1/TRPV1) of the rat species can be determined with the following assay. In this assay, the Ca^2+ current through the receptor channel is quantified with the aid of a Ca^2+-sensitive dye (Fluo-4 type, Molecular Probes Europe BV, Leiden the Netherlands) in a fluorescent imaging plate reader (FLIPR, Molecular Devices, Sunnyvale, USA).
Complete medium: 50 ml HAMS F12 Nutrient Mixture (Gibco Invitrogen GmbH, Karlsruhe, Germany) with 10% by volume of FCS (fetal calf serum, Gibco Invitrogen GmbH, Karlsruhe, Germany, heat-inactivated);
2 mM L-glutamine (Sigma, Munich, Germany);
1% by weight of AA solution (antibiotic/antimycotic solution, PAA, Pasching, Austria) and 25 ng/ml of NGF medium (2.5 S, Gibco Invitrogen GmbH, Karlsruhe, Germany)
Cell culture plate: poly-D-lysine-coated, black 96-hole plates with a clear bottom (96 well black/clear plate, BD Biosciences, Heidelberg, Germany) are additionally coated with laminin (Gibco Invitrogen GmbH, Karlsruhe, Germany) by diluting laminin to a concentration of 100 μg/ml with PBS (Ca—Mg-free PBS, Gibco Invitrogen GmbH, Karlsruhe, Germany). Aliquots having a concentration of 100 μg/ml of laminin are withdrawn and stored at −20° C. The aliquots are diluted with PBS in a ratio of 1:10 to 10 μg/ml of laminin and in each case 50 μl of the solution are pipetted into a well of the cell culture plate. The cell culture plates are incubated at 37° C. for at least two hours, the supernatant solution is removed by suction and the wells are each washed twice with PBS. The coated cell culture plates are stored with supernatant PBS which is not removed until directly before the application of the cells.
The spinal column is removed from beheaded rats and placed directly into cold HBSS buffer (Hank's buffered saline solution, Gibco Invitrogen GmbH, Karlsruhe, Germany), i.e. placed in an ice bath, which has been admixed with 1% by volume of an AA solution (antibiotic/antimycotic solution, PAA, Pasching, Austria). The spinal column is severed longitudinally and removed from the spinal canal together with fasciae. Subsequently, the dorsal root ganglia (DRGs) are removed and in turn stored in cold HBSS buffer admixed with 1% by volume of an AA solution. The DRGs freed completely of blood residues and spinal nerves are in each case transferred to 500 μl of cold type 2 collagenase (PAA, Pasching, Austria) and incubated at 37° C. for 35 minutes. […] After complete incubation, the enzyme solution is cautiously pipetted off and the remaining DRGs are each suspended with 500 μl of complete medium.
The DRGs are each suspended repeatedly, drawn through cannulas No. 1, No. 12 and No. 16 by means of a syringe and transferred to 50 ml Falcon tubes which are made up to 15 ml with complete medium. The contents of each Falcon tube are in each case filtered through a 70 μm Falcon filter insert and centrifuged at 1200 revolutions and room temperature for 10 minutes. The resulting pellet is in each case taken up in 250 μl of complete medium and the cell count is determined.
The number of cells in the suspension is adjusted to 3 times 10^5 per ml and in each case 150 μl of this suspension are added to one well of the cell culture plates coated as described above.
Subsequently, the cells are laden with 2 μM Fluo-4 and 0.01% by volume of Pluronic F127 (Molecular Probes Europe BV, Leiden, the Netherlands) in HBSS buffer (Hank's buffered saline solution, Gibco Invitrogen GmbH, Karlsruhe, Germany) at 37° C. for 30 min, washed 3× with HBSS buffer and, after a further incubation of 15 minutes, used in the FLIPR assay at room temperature for Ca^2+ measurement. The Ca^2+-dependent fluorescence is measured before and after addition of substances (λex=488 nm, λem=540 nm). The quantification is effected by the measurement of the highest fluorescence intensity (FC, fluorescence counts) over the time.

Experiment [2] has as its target T2, VR1 (human) (Homo sapiens, UniProt Q8NER1).
T2 construct: expressed in transfected cells; host or cells: CHO K1 cells (ECACC), stably transfected
The experiment can be described thus: Functional study on vanilloid receptor (VR1), FLIPR Ca2+ assay in CHO K1 cells stably transfected with the VR1 gene. It is filed as cell-based. The following applies: for inhibition at 10 µM / activation at 10 µM: CHO-K1, test compound 10 μM; for inhibition at 10 µM / VR1 (human) (% inhibition compared to 10 μM CP): 5 min incubation, then 100 nM capsaicin, compared to 10 μM CP; for activation at 10 µM / VR1 (human) (% stimulation compared to 10 μM CP): Ca2+ signal relative to 10 μM capsaicin (CP); for activation at 10 µM: read-out: VR1 (human) (% stimulation compared to 10 μM CP); for VR1 (human) (% inhibition compared to 10 μM CP) / VR1 (human) (% stimulation compared to 10 μM CP): test compound 10 μM. The text has this:
The agonistic or antagonistic action of the substances to be tested on vanilloid receptor (VR1) can also be determined with the assay which follows. In this assay, the Ca^2+ current through the channel is quantified with the aid of a Ca^2+-sensitive dye (Fluo-4 type, Molecular Probes, Europe BV, Leiden, the Netherlands) in a fluorescent imaging plate reader (FLIPR, Molecular Devices, Sunnyvale, USA).
Chinese hamster ovary cells (CHO K1 cells, European Collection of Cell Cultures (ECACC) Great Britain) are transfected stably with the VR1 gene. For functional studies, these cells are plated out onto poly-D-lysine-coated black 96-well plates with a clear bottom (BD Biosciences, Heidelberg, Germany) in a density of 25 000 cells/well. The cells are incubated overnight at 37° C. and 5% CO2 in a culture medium (Ham's Nutrient Mixture F12, 10% by volume of FCS (fetal calf serum), 18 μg/ml of L-proline). The next day, the cells are incubated with Fluo-4 (Fluo-4 2 μM, Pluronic F127 0.01% by volume, Molecular Probes in HBSS (Hank's buffered saline solution), Gibco Invitrogen GmbH, Karlsruhe, Germany) at 37° C. for 30 minutes. Subsequently, the plates are washed 3 times with HBSS buffer and, after a further incubation of 15 minutes at room temperature, used for Ca^2+ measurement in FLIPR. The Ca^2+-dependent fluorescence is measured before and after addition of the substances to be studied (wavelength λex=488 nm, λem=540 nm). The quantification is effected by measuring the highest fluorescence intensity (FC, fluorescence counts) over the time.
The FLIPR protocol consists of 2 substance additions. First, the substances to be tested (10 μM) are pipetted onto the cells and the Ca current is compared with the control (capsaicin 10 μM) (% activation based on the Ca^2+ signal after addition of 10 μM capsaicin). After incubation for 5 minutes, 100 nM capsaicin is applied and the current of Ca^2+ is likewise determined.

T2 sequence (Q8NER1 whole entry): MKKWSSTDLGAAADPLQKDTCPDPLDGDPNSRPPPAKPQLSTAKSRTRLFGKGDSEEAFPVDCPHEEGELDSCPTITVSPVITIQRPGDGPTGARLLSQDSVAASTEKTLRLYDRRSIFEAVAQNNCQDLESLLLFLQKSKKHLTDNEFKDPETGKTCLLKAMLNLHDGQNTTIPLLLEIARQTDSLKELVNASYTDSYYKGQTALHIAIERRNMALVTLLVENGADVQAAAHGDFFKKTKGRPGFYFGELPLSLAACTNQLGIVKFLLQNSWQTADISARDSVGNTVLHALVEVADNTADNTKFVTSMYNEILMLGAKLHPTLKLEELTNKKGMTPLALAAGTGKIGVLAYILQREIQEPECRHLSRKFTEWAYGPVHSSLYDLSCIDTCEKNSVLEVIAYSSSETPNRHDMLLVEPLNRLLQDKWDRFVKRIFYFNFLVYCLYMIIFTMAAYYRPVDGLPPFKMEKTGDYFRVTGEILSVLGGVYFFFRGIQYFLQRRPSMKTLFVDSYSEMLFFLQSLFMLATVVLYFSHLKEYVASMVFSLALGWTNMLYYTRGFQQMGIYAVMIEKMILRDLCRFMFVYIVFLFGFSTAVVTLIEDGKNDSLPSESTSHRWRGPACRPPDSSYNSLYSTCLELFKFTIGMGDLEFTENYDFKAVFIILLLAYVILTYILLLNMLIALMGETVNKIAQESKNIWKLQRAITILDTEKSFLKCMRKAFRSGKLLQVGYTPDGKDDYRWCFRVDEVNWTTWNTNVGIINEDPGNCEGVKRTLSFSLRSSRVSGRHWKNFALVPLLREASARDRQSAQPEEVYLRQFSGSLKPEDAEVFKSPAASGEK

On to `O=C1N=C(N2CCSCC2)SC1=Cc1cccc(C(=O)N2CCN(c3ncccc3Cl)CC2)c1` [Example 88, 5-{3-[4-(3-chloropyridin-2-yl)piperazine-1-carbonyl]benzylidene}-2-thiomorpholin-4-ylthiazol-4-one], for which the results for the inhibition at 10 µM in experiment [1] and in experiment [2] were 90.1% and 71.1%, respectively. The activation at 10 µM was 72.8% in experiment [1] and 61.4% in experiment [2].
In the case of `O=C(NC1=NC(=O)C(=Cc2ccc(C(F)(F)F)cc2)S1)Nc1ccccc1C(F)(F)F` [Example 96, 1-[4-oxo-5-(4-trifluoromethylbenzylidene)-4,5-dihydrothiazol-2-yl]-3-(2-trifluoromethylphenyl)urea], in experiment [1], the inhibition at 10 µM turned out to be 27% and the activation at 10 µM is 28.5%. For the same molecule, in experiment [2], the inhibition at 10 µM turned out to be 54.6% and the activation at 10 µM is 5.03%.
On to `CC1CN(C(=O)c2cccc(C=C3SC(N4CCSCC4)=NC3=O)c2)CCN1c1ncccc1Cl` (centres unmarked) [Example 110, 5-{3-[4-(3-chloropyridin-2-yl)-3-methylpiperazine-1-carbonyl]benzylidene}-2-thiomorpholin-4-ylthiazol-4-one], for which, in experiment [1], the inhibition at 10 µM was 50.3% and the activation at 10 µM was found to be 49.3%. Moreover, in experiment [2], the inhibition at 10 µM is 28.8% and the activation at 10 µM worked out at 1.02%.
The matching figures for `O=C1N=C(N2CCSCC2)SC1=Cc1cccc(C(=O)N2CCN(c3ncc(C(F)(F)F)cc3Cl)CC2)c1` [Example 113, 5-{3-[4-(3-chloro-5-trifluoromethylpyridin-2-yl)piperazine-1-carbonyl]-benzylidene}-2-thiomorpholin-4-ylthiazol-4-one]: 97.4%, 136%, 97.8% and 90.3%.
In the case of `O=C1N=C(N2CCSCC2)SC1=Cc1cccc(C(=O)N2CCN(c3nsnc3Cl)CC2)c1` [Example 115, 5-{3-[4-(4-chloro-[1,2,5]thiadiazol-3-yl)piperazine-1-carbonyl]benzylidene}-2-thiomorpholin-4-ylthiazol-4-one], in experiment [1], the inhibition at 10 µM was 95.8% and the activation at 10 µM turned out to be 128%. In experiment [2], 10 µM produced 66.2% inhibition and the activation at 10 µM was 68.2%.
For the molecule `CC(C)c1ccc(C=C2SC(N3CCOCC3)=NC2=O)cc1` [Example 135, 5-(4-isopropylbenzylidene)-2-morpholin-4-ylthiazol-4-one], in experiment [1], the “VR1 (rat) (% inhibition compared to 10 μM CP)” value is 87.60% and the “VR1 (rat) (% stimulation compared to 10 μM CP)” value was found to be 79.68%. In experiment [2], the “VR1 (human) (% inhibition compared to 10 μM CP)” value worked out at 84.29% and the “VR1 (human) (% stimulation compared to 10 μM CP)” value was found to be 85.02%.
Consider `CC(C)c1ccc(C=C2SC(N3CCSCC3)=NC2=O)cc1` [Example 136, 5-(4-isopropylbenzylidene)-2-thiomorpholin-4-ylthiazol-4-one], for which, in experiment [1], the inhibition at 10 µM was found to be 96.9% and the activation at 10 µM worked out at 84%. Moreover, in experiment [2], the inhibition at 10 µM was determined as 86.7% and the activation at 10 µM is 114%.
Take `Cc1ccc(N2CCN(C3=NC(=O)C(=Cc4ccc(C(C)(C)C)cc4)S3)CC2)nn1` [Example 154, 5-(4-tert-butylbenzylidene)-2-[4-(6-methylpyridazin-3-yl)piperazin-1-yl]thiazol-4-one]: in experiment [1], the inhibition at 10 µM was 54.1% and the activation at 10 µM came out at 3.99%. In experiment [2], the inhibition at 10 µM was determined as 34.2% and the activation at 10 µM turned out to be 6.56%.
Consider `Cc1ccc(N2CCN(C3=NC(=O)C(=CC=Cc4ccccc4)S3)CC2)nn1` [Example 161, 2-[4-(6-methylpyridazin-3-yl)piperazin-1-yl]-5-(3-phenylallylidene)thiazol-4-one], for which the inhibition at 10 µM in experiment [1] was found to be 17%; in experiment [2] it was 47.2%. The values for the activation at 10 µM in experiment [1] and in experiment [2] were 2.5% and 2.43%, respectively.
Consider `Br.Cc1ccc(C=C2SC(N3CCOCC3)=NC2=O)cc1` [Example 176, 5-(4-methylbenzylidene)-2-morpholin-4-ylthiazol-4-one hydrobromide], for which, in experiment [1], the inhibition at 10 µM was 97.5% and the activation at 10 µM was found to be 44.7%. Further, in experiment [2], the activation at 10 µM stood at 14.5% and the “VR1 (human) (% inhibition compared to 10 μM CP)” value came to 35.32%.
As to `Br.CC(C)c1ccc(C=C2SC(N3CCOCC3)=NC2=O)cc1` [Example 179, 5-(4-isopropylbenzylidene)-2-morpholin-4-ylthiazol-4-one hydrobromide], in experiment [1], the “VR1 (rat) (% inhibition compared to 10 μM CP)” value was determined as 38.36% and the “VR1 (rat) (% stimulation compared to 10 μM CP)” value was 41.89%. Besides, in experiment [2], the “VR1 (human) (% inhibition compared to 10 μM CP)” value worked out at 30.72% and the “VR1 (human) (% stimulation compared to 10 μM CP)” value was 5.04%.
For `O=C1N=C(N2CCOCC2)SC1=CC=Cc1ccccc1` [Example 189, 2-morpholin-4-yl-5-(3-phenylallylidene)thiazol-4-one hydrobromide], the inhibition at 10 µM came out at 5.61% in experiment [1] and 8.14% in experiment [2]. In addition, the activation at 10 µM in experiment [1] turned out to be 6.64%; in experiment [2], 11.2%. For the same molecule, the EC50 is greater than 25 µM in experiment [1] (unit inferred) and greater than 50 µM in experiment [2] (unit inferred).
